Measured values as given in patent US8957087B2, “Heterocyclic substituted acardite derivate and application thereof” (Jiangsu Provincial Institute of Materia Medica Co., Ltd., priority 2009, dated 2015).
“And” between values parts separate entries of the source, which are not always exact repeats. Identical values can stand only once. Like-named read-outs stand apart in the source and are kept apart here. Marks after values point to notes of the source that are not given here.

Legend:
[1] = system: Raf-1(truncated); assay: Raf-1 inhibitor screening by chemoluminescence method; assay type: biochemical; settings: Final concentration 1 x 1.0*10^−5 mol/ml
Description: 1. Inhibitory activity of the compound of the present invention on raf kinase
Raf-1 inhibitor screening by chemoluminescence method
Westernblot electrophoresis apparatus Rotaryshaker
Raf-1(truncated), Magnesium/ATP Cocktail, MEK1 unactive

[2] = system: human umbilical vein endothelial cell HUVEC; assay: Growth of human umbilical vein endothelial cell HUVEC by CCK8 method; assay type: cell-based; settings: Final concentration 1 x 1.0*10^(−5) mol/L
Summary of the method: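 HUVEC cells were grown in 1640 medium with 10% FBS, and growth was measured by the CCK8 method. OD values of drug and control wells were corrected by subtracting the blank-well OD.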

[3] = system: Human colon cancer HT-29 transplantable tumor; assay: Human colon cancer HT-29 transplantable tumor in nude mice; settings: for Relative tumor reproduction rate T/C (%): HT-29 in nude mice, 60 mg/kg; for Relative tumor reproduction rate T/C (%) / RTV: 60 mg/kg ig 9 times; for RTV: relative tumor volume; for TV d0: tumor volume d0, 60 mg/kg; for TV d13: tumor volume d13, 60 mg/kg ig 9 times
Description: Experimental therapeutic action of the compound in the present invention on Human colon cancer HT-29 transplantable tumor in nude mice.
Take eugenic tumor tissues and cut into about 1.5 mm^3, and then incoculate subcutaneously at the right armpit of nude mice under the sterile conditions. The diameter of the transplantable tumor in nude mice was determined with a vernier caliper, and the animals were divided into groups after the tumors were grown to 100-300 mm^3. Using the method of measuring the tumor diameter, dynamically observe the antitumor effects of tested materials. The diameter of the tumor was determined three times every week and the mouse weight was weighed at the same time. […] The solvent was intragastrically administrated as the control for continuous 9 times. Equal amount of control was administrated in the negative control group.
Tumor volume (TV) is calculated as: TV=½×a×b^2, wherein a and b respectively represent length and width.
Relative tumor volume (RTV) is calculated as: RTV=TVt/TV0, wherein TV0 is the tumor volume when administrated according to different cages and TVt is the tumor volume measured each time.
Relative tumor reproduction rate T/C (%) is calculated as follows:
TRTV: RTV in the treatment group; CRTV: RTV in the negative control group.
The test results used relative tumor reproduction rate T/C (%) as evaluating indicator of anti-tumor activity.

[4] = system: human liver cancer cell bel-7402 transplantation tumor; assay type: in vivo; settings: BALB/cA nude mice; 60 mg/kg, 6 times every week for 3 weeks; Sorafenib oral 60 mg/kg
Summary of the method: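 Female BALB/cA nude mice (35–40 days, 18–22 g) bearing Bel-7402 xenografts; 6 mice per treated group, 12 in saline controls. Compound dosed at 60 mg/kg, 6 times weekly for 3 weeks, followed by one week of observation; tumor inhibition rate scored against controls.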

[5] = system: human lung cancer A549 transplantation tumor; assay type: in vivo; settings: BALB/cA nude mice; 60 mg/kg, 6 times every week for 3 weeks; Sorafenib oral 60 mg/kg
Summary of the method: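 Female BALB/cA nude mice, 35-40 days old, bearing A549 human lung cancer transplants; 6 per treatment group, 12 saline controls. Compound given at 60 mg/kg, 6 times weekly for 3 weeks, then observed one week.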

[6] = system: human high-metastic lung cancer cell 95D; assay: Inhibition of human high-metastic lung cancer cell 95D migration (Boyden Chamber Transwell); assay type: cell-based; settings: Final concentration 1 x 1.0*10^(−5) mol/L
Summary of the method: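 Boyden Transwell migration (8 μm pores) of 95D cells, RPMI-1640 with 10% FBS versus serum-free medium; inhibition rate calculated.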

[7] = system: mice S180 sarcoma; settings: mouse, in vivo, 60 mg/kg
[8] = system: lung cancer cell A549; assay: Effects on the adhesive ability of lung cancer cell A549; assay type: cell-based, human; settings: Final concentration 1 x 1.0*10^(−5) mol/L
Summary of the method: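 A549 cells in 1640 medium with 10% FBS tested for adhesion to gelatin versus poly-lysine (PLL), with CCK8 used as read-out. Inhibition rate derived from the gelatin/PLL adhesion OD ratio of dosed cells relative to the undosed cell group.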

[9] = system: human umbilical vein endothelial cell HUVEC; assay: Lumen formation ability of HUVEC (Matrigel method); assay type: cell-based; settings: Final concentration 1 x 1.0*10^(−5) mol/L
Summary of the method: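 HUVEC at passage 3–5, cultured in M199 at 37° C under 5% CO2, were plated on Matrigel with compound. Spontaneous lumen formation was scored as an inhibition rate.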

[10] = system: mice S180 sarcoma; assay: Experimental therapeutic action on S180 sarcoma mice; settings: for Tumor weight x ± SD: day 10; for Tumor growth inhibition rate (%): mice S180 sarcoma, 60 mg/kg orally for 9 days
[11] = system: renal carcinoma cell line GCR-1 transplanted tumor; assay type: in vivo, BALB/cA nude mice; settings: BALB/cA nude mice; 60 mg/kg, 6 times every week for 3 weeks; Sorafenib oral 60 mg/kg
Summary of the method: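 Female BALB/cA nude mice (18–22 g) bearing GCR-1 renal carcinoma xenografts, 6 per treated group, 12 saline controls. Drug given at 60 mg/kg, 6 times weekly for 3 weeks, then one week of observation; tumor inhibition rate reported.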

[12] = system: human lung cancer cell strain A549; assay: MTT assay, inhibition of growth of human lung cancer cell strain A549; assay type: cell-based; settings: Final concentration 1 x 1.0*10^(−5) mol/L
Summary of the method: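 A549 cells grown in F12 with 10% FBS; growth read by MTT, inhibition rate from blank-corrected OD of drug wells versus control wells.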

Compound | Inhibition rate % on raf kinase [1] [%] | Inhibition rate, growth of HUVEC cell [2] [%] | Relative tumor reproduction rate T/C (%) [3] [%] | RTV [3] | TV d0 [3] | TV d13 [3] | Relative tumor reproduction rate T/C (%) on human liver cancer cell bel-7402 transplantation tumor model in nude mice [4] [%] | Relative tumor reproduction rate T/C (%) on human lung cancer A549 transplantation tumor in nude mice [5] [%] | Inhibition rate, 95D cell strain migration [6] [%] | Inhibition rate, adhesion ability of human lung cancer cell A549 [8] [%] | Inhibition rate, lumen formation ability of HUVEC [9] [%] | Tumor weight x ± SD ([10]; 60 mg/kg ig for 9 days) [g] | Relative tumor reproduction rate T/C (%) on human renal carcinoma GCR-1 cell transplanted tumor model in nude mice [11] [%] | Inhibition rate, growth of human lung cancer cell A549 [12] [%] | further results
CNC(=O)c1cc(Oc2ccc(NC(=O)Nc3ccc(Br)c(C(F)(F)F)c3)cc2)c2cc(OC)ccc2n1 [Compound 3] | 56.3 | 27.67 | 47.34 | 2.40 ± 0.67 | 133 ± 18 | 322 ± 129 | 30.1 | 37.2 | 96.64 | 79.66 | 76.61 | 0.75 ± 0.36 | 31.3 | 69.67 | Weight (g) Start [7]: 18.0 ± 1.1 g; Tumor growth inhibition rate (%) [10]: 53.4%
CNC(=O)c1cc(Oc2ccc(NC(=O)Nc3ccc(F)c(C(F)(F)F)c3)cc2)c2cc(OC)ccc2n1 [Compound 2] | 61.1 | 13.11 | 39.45 | 2.00 ± 0.41 | 133 ± 23 | 265 ± 100 | 35.4 | 35.3 | 85.17 | 75.15 | 75.14 | 0.87 ± 0.24 | 23.2 | 61.11 | Weight (g) d0 ([3]; nude mouse body weight d0, 60 mg/kg): 19.9 ± 0.8 g; Weight (g) d13 ([3]; nude mouse body weight d13, 60 mg/kg ig 9 times): 21.0 ± 0.8 g; Tumor growth inhibition rate (%) ([10]; 60 mg/kg): 46.0% and 24.1%; Weight (g) Start ([10]; mouse body weight at start, 60 mg/kg ig): 18.9 ± 1.7 g; Weight (g) Final ([10]; mouse body weight final, 60 mg/kg ig for 9 days): 20.9 ± 2.3 g
